Assay [1] concerns the target HLA-B*0702 (Homo sapiens, UniProt P01889). As to the kind of experiment: Fluorescence polarization competition for MHC-peptide binding. Conditions: soluble HLA-B*0702, fluorescent labeled binding standard. The method, then:
A similar analysis was conducted with C35 peptides that bind to soluble HLA-B*0702 employing a fluorescent labeled HLA-B*0702 binding standard and suitable relevant and irrelevant peptides to calibrate inhibition of binding by test peptides. Note that these inhibition values are sensitive to the choice and concentration of both MHC molecule and specific fluorescent peptides under the same assay conditions.

Assay [2] relates to B/C.N cells. Nature of the assay: 51Cr release (CML), sensitization of B/C.N to lysis by tumor specific CTL. Format: cell-based, mouse. The conditions noted are these: for sensitization of B/C.N cells to lysis by tumor-specific CTL: 4 hours; for peptide concentration to sensitize targets to lysis by CTL: B/C.N targets.
The subject of assay [3] is EBV-B target cells. As to the kind of experiment: C35 peptide mediated T cell lysis of peptide pulsed EBV-B cells (Table 10). Format: cell-based, human.
Assay [4] has as its system T cell line 4. Type of assay: cell-based, human.
The target of assay [5] is T1, hC35 protein (Homo sapiens, UniProt Q9BRT3).
T1 construct: made in house; host or cells: E. coli
T1 sequence (Q9BRT3 1-115): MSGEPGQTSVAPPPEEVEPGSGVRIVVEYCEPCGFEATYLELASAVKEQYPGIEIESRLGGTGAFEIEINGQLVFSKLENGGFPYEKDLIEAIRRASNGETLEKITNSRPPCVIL
As to the kind of experiment: Western Blot immunodetection with hybridoma supernatants. Type of assay: binding. Conditions: 100 ng purified recombinant C35 protein or control β-galactosidase per lane. The method, then: Western Blot Immunodetection was performed with supernatants from selected hybridoma clones. […] In these experiments, 100 ng of purified recombinant C35 protein or control β-galactosidase protein was loaded in each lane of an 18% SDS polyacrylamide gel. Gels were transferred to PVDF membrane, as is well known to those practiced in the art. Membranes were blocked with Tris buffered saline (TBS), including Tween-20 and 5% non-fat dry milk. Each blot was incubated with various dilutions of hybridoma supernatants as the primary antibody, followed by incubation with a secondary antibody, goat anti-mouse IgG conjugated to HRP, and detected with the chemiluminescent substrate, ECL. Similar results were obtained with 11B10 (not shown).
For orientation: Immunoblotting shows a protein as a band on a membrane.

The target in assay [6] is T2, C35 (Homo sapiens, UniProt Q9BRT3).
T2 construct: from tissue; host or cells: paraffin sections of primary human breast tumor (invasive breast adenocarcinoma, patient 01A6) and normal breast tissue
T2 sequence (Q9BRT3 1-115): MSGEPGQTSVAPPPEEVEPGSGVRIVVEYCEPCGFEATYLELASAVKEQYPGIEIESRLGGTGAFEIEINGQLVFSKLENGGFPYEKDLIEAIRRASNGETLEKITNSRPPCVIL
As to the kind of experiment: Immunohistochemical staining of primary breast tumor sections. Format: binding. The conditions noted are these: paraffin sections, affinity purified antibody. The source says:
Antibody was affinity purified from 1F2 hybridoma supernatant. Paraffin-embedded slides were deparaffinized with xylene and rehydrated through graded alcohols. Target retrieval was achieved through steam and high pH treatment. […] Slides were counterstained with hematoxylin, dehydrated with EtOH/xylene, and coverslipped.

Bounds are passed on as bounds.

One may read the % Inhibition as how much of the control response was suppressed. The low end stands for a response near the control, the high end for a response far below the control.

Take NSRPPCVIL [N107 to L115]: the “% Inhibition” value in assay [1] is on record as 68.2%. Regarding “L348-56 (I54): peptide of ribosomal protein L3, positions 48-56 with Ile 54; target epitope of tumor-specific CTL (GYKAGMIHI)”, in assay [2], the “sensitization of B/C.N cells to lysis by tumor-specific CTL” value is listed as “sensitized B/C.N to lysis” and the “peptide concentration to sensitize targets to lysis by CTL” value was at most 0.01 µM. In the same order, the values of “L348-56 (T54): wild type ribosomal protein L3 peptide 48-56 with Thr 54 (GYKAGMTHI) [reference compound]” are “did not” and above 100 µM. Consider “L345-54 (I54): peptide of ribosomal protein L3, positions 45-54 with Ile 54 (AFLGYKAGMI)”, for which the “sensitization of B/C.N cells to lysis by tumor-specific CTL” value in assay [2] is listed as “did not”. For KLENGGFPY [peptide 77-85], the “% Lysis EBV-B cell Target” value in assay [3] (T cell clone #46, donor (A2, A3; B18, B44), target pulsed with peptide) came to 97.1%. In addition, the “lytic activity on EBV-B cells pulsed with peptide” value in assay [3] (T cell clones from donor with A2, A3, B18, B44 HLA haplotypes) is 97.1%. Moreover, the GM-CSF stimulation result in assay [4] was “greatest stimulation”. On to ITNSRPPCV [105-113], for which the “% Inhibition” value in assay [1] was 45.2%.

B1: 3E10: C35-specific monoclonal antibody; Kappa and IgG1 V-genes SEQ ID NOs:150 and 151 (antibody, V domains shown)
VH: MMVLSLLYLLTALPGILSEVQLQESGPSLVKPSQTLSLTCSVTGDSITSGYWNWIRKFPGNKLEYVGYISYSGGTYYNPSLKSRISITRDTSKNHYYLQLNSVTTEDTATYYCARGAYYGGAFFPYFDVWGAGTTVTVSS
VL: MRFQVQVLGLLLLWISGAHCDVQITQSPSFLAASPGETITINCRASKYISKHLVWYQEKPGETKKLLIYSGSTLQSGLPSRFSGSGSGTDFTLTISSLEPEDFAMYYCQQHNEYPLTFGAGTKLELK
modifications: cDNA of 3E10 V-genes (IgG1); cDNA of 3E10 V-genes (Kappa)
Consider B1, for which the “reactivity with hC35 protein in Western Blot” value in assay [5] is listed as “reacted specifically”.

B2: 1F2: C35-specific monoclonal antibody; Kappa and IgG1 V-genes SEQ ID NOs:148 and 149 (antibody, V domains shown)
VH: MKVLSLLYLLTAIPGILSDVQLQESGPGLVKPSQSLSLTCSVTGYSITSGYFWNWIRQFPGNKLEWMGYISYDGSNNSNPSLKNRISFTRDTSKNQFFLKFNSVTTDDSAAYYCTRGTTGFAYWGQGTLVTVSA
VL: MDFQVQIFSFLLISASVRMSRGQIVLTQSPAIMSASPGEKVTISCSASSSVSYMNWYQQKPGSSPKPWIYHTSNLASGVPARFSGSGSGTSYSLTISSMEAEDAATYYCQQYHSYPPTFGGGTKLEIK
modifications: cDNA of 1E11/1F2 V-genes (IgG1); cDNA of 1E11/1F2 V-genes (Kappa)
For B2, in assay [6], the “immunohistochemical staining of human breast tumors” value is “can detect high levels of endogenous C35 expression” and the “immunohistochemical staining of normal breast tissue” value is given as “little or no staining”. In assay [5], the “reactivity with hC35 protein in Western Blot” value was “reacted specifically”.

The values are drawn from US7563882B2, “Polynucleotides encoding antibodies that bind to the C35 polypeptide” (University of Rochester, priority 2002, dated 2009).
